Results reported in PubChem BioAssay (NCI).
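Compound exposure: 48 hours, 5 concentrations, 96-well plates. Abbreviation: GI50, concentration required for 50% inhibition of growth. TGI is the concentration that stops growth completely.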

Tests used:
Experiment in all cases: DTP human tumour cell line panel, 48 h
[1] = system: HCT-116 colon
[2] = system: SR leukemia
[3] = system: SK-MEL-5 melanoma
[4] = system: LOX IMVI melanoma
[5] = system: TK-10 renal
[6] = system: HT29 colon
[7] = system: MDA-MB-435
[8] = system: SF-268 CNS
[9] = system: CAKI-1 renal
[10] = system: SW-620 colon
[11] = system: UO-31 renal
[12] = system: KM12 colon
[13] = system: A549 NSCLC
[14] = system: SK-OV-3 ovarian
[15] = system: UACC-62 melanoma
[16] = system: K-562 leukemia
[17] = system: OVCAR-5 ovarian
[18] = system: T-47D breast
[19] = system: OVCAR-8 ovarian
[20] = system: HOP-92 NSCLC
[21] = system: UACC-257 melanoma
[22] = system: MALME-3M melanoma
[23] = system: MCF7 breast
[24] = system: SF-539 CNS
[25] = system: SF-295 CNS
[26] = system: U251 CNS
[27] = system: HCC-2998 colon
[28] = system: A498 renal
[29] = system: MOLT-4 leukemia
[30] = system: SK-MEL-28 melanoma

CCOP(=O)(CC(F)(F)C(F)(F)F)OCC
GI50 [1]: 1860 nM
TGI [1]: 4.86 µM
GI50 [2]: 2400 nM
TGI [2]: 11.5 µM
GI50 [3]: 3.38 µM
TGI [3]: 13.7 µM
GI50 [4]: 1780 nM
TGI [4]: 3.91 µM
GI50 [5]: 3.11 µM
TGI [5]: 7.27 µM
GI50 [6]: 2250 nM
TGI [6]: 4.96 µM
GI50 [7]: 3.31 µM
TGI [7]: 14.5 µM
GI50 [8]: 17.9 µM
TGI [8]: 54.4 µM
GI50 [9]: 3.06 µM
TGI [9]: 10.6 µM
GI50 [10]: 1830 nM
TGI [10]: 3.92 µM
GI50 [11]: 2820 nM
TGI [11]: 10.9 µM
GI50 [12]: 17.2 µM
TGI [12]: 33.6 µM
GI50 [13]: 30.7 µM
TGI [13]: > 100 µM
GI50 [14]: 27.4 µM
TGI [14]: 74.8 µM
GI50 [15]: 2350 nM
TGI [15]: 8.87 µM
GI50 [16]: 2620 nM
TGI [16]: 17.9 µM
GI50 [17]: 17.6 µM
TGI [17]: 32.5 µM
GI50 [18]: 2190 nM
TGI [18]: 7.23 µM
GI50 [19]: 3.79 µM
TGI [19]: 55.3 µM
GI50 [20]: 3.37 µM
TGI [20]: 10.7 µM
GI50 [21]: 2570 nM
TGI [21]: 11.1 µM
GI50 [22]: 1830 nM
TGI [22]: 3.62 µM
GI50 [23]: 2450 nM
TGI [23]: 12.1 µM
GI50 [24]: 2020 nM
TGI [24]: 4.75 µM
GI50 [25]: 15.6 µM
TGI [25]: 33.2 µM
GI50 [26]: 20.7 µM
TGI [26]: 60.2 µM
GI50 [27]: 12.2 µM
TGI [27]: 25.2 µM
GI50 [28]: 19.7 µM
TGI [28]: 37 µM
GI50 [29]: 1920 nM
TGI [29]: 10.3 µM
GI50 [30]: 1820 nM
